Measurements from patent US9732088B2, “C2-carbocyclic iminothiazine dioxides as BACE inhibitors, compositions, and their use” (Merck Sharp & Dohme Corp., priority 2014, dated 2017).

Assays:
[1] = target: soluble human BACE-1 catalytic domain (Homo sapiens (Human), UniProt P56817); experiment: BACE-1 Ki Assay (BACE-1 HTRF FRET Assay); type: biochemical; conditions: Assay 1; Ki calculated from IC50 by Cheng-Prusoff
Experimental: Assay 1: BACE-1 Ki Assay (BACE-1 HTRF FRET Assay)
The compounds of the invention were determined to be potent inhibitors of BACE-1 using the following assay.
The following reagents were used in this assay. Na^+-Acetate pH 5.0; 1% Brij-35; Glycerol; Dimethyl Sulfoxide (DMSO); Recombinant human soluble BACE-1 catalytic domain (>95% pure); APP Swedish mutant peptide substrate (QSY7-APP^swe-Eu): QSY7-[…]-Europium-amide.
A homogeneous time-resolved FRET assay can be used to determine IC50 values for inhibitors of the soluble human BACE-1 catalytic domain. This assay monitors the increase of 620 nm fluorescence that resulted from BACE-1 cleavage of an APPswedish APP^swe mutant peptide FRET substrate (QSY7-[…]-Europium-amide). This substrate contains an N-terminal QSY7 moiety that serves as a quencher of the C-terminal Europium fluorophore (620 nm Em). In the absence of enzyme activity, 620 nm fluorescence is low in the assay and increased linearly over 3 hours in the presence of uninhibited BACE-1 enzyme. Inhibition of BACE-1 cleavage of the QSY7-APP^swe-Eu substrate by inhibitors is manifested as a suppression of 620 nm fluorescence.
Varying concentrations of inhibitors at 3× the final desired concentration in a volume of […] are preincubated with purified human BACE-1 catalytic domain (3 nM in 10 μl) for 30 minutes at 30° C. in reaction buffer containing 20 mM Na-Acetate pH 5.0, 10% glycerol, 0.1% Brij-35 and 7.5% DSMO. Reactions are initiated by addition of 10 μl of 600 nM QSY7-APP^swe-Eu substrate (200 nM final) to give a final reaction volume of 30 μl in a 384 well Nunc HTRF plate. The reactions are incubated at 30° C. for 1.5 hours. The 620 nm fluorescence is then read on a Rubystar HTRF plate reader (BMG Labtechnologies) using a […] delay followed by a 400 millisecond acquisition time window. Inhibitor IC50 values are derived from non-linear regression analysis of concentration response curves. Ki values are then calculated from IC50 values using the Cheng-Prusoff equation using a previously determined […] of 8 μM for the QSY7-APP^swe-Eu substrate at BACE-1. The example compounds of the invention were measured in this assay.

[2] = target: purified human autoBACE-2 (Homo sapiens (Human), UniProt Q9Y5Z0); experiment: BACE-2 Assay (BACE-HTRF assay); type: biochemical; conditions: Assay 2; Ki calculated from IC50 by Cheng-Prusoff; read-out: BACE2 Ki
Experimental: The compounds of the invention were determined to be potent inhibitors of BACE-2 using the following assay. Inhibitor IC50s at purified human autoBACE-2 are determined in a time-resolved endpoint proteolysis assay that measures hydrolysis of the QSY7-[…]-Eu-amide FRET peptide substrate (BACE-HTRF assay). BACE-mediated hydrolysis of this peptide results in an increase in relative fluorescence (RFU) at 620 nm after excitation with 320 nm light Inhibitor compounds, prepared at 3× the desired final concentration in 1×BACE assay buffer (20 mM sodium acetate pH 5.0, 10% glycerol, 0.1% Brij-35) supplemented with 7.5% DMSO are pre-incubated with an equal volume of autoBACE-2 enzyme diluted in 1×BACE assay buffer (final enzyme concentration 1 nM) in black 384-well NUNC plates for 30 minutes at 30° C. […] DMSO is present at […] final concentration in the assay. Following laser excitation of sample wells at 320 nm, the fluorescence signal at 620 nm is collected for 400 ms following a 50 μs delay on a RUBYstar HTRF plate reader (BMG Labtechnologies). Raw RFU data is normalized to maximum (1.0 nM BACE/DMSO) and minimum (no enzyme/DMSO) RFU values. IC50 values are determined by nonlinear regression analysis (sigmoidal dose response, variable slope) of percent inhibition data with minimum and maximum values set to 0 and 100 percent respectively. Similar IC50s are obtained when using raw RFU data. The Ki values are calculated from the IC50 using the Cheng-Prusoff equation.

[3] = target: BACE-1 (Homo sapiens (Human), UniProt P56817); experiment: BACE-1 Cellular Assay (Aβ in HEK293-APPswe/lon cells); type: cell-based; conditions: 4 hours
Experimental: Assay 3: BACE-1 Cellular Assay
Certain compounds of the invention, identified in the tables herein, were determined to be potent inhibitors of BACE-1 in the following cellular assay. HEK293 cells are obtained from the American Type Culture Collection (ATCC) and stably transfected with the human amyloid precursor protein cDNA containing the FAD Swedish (enhances β-secretase processing) and London (enhances Aβ42 cleavage) mutations. A HEK293 stable clone with Aβ expression (HEK293-APP^swe/lon) is identified and maintained at 37° C., 5% CO2 in the ATCC-recommended growth media supplemented with hygromycin. […] Aβ40 or Aβ42 are measured in 15 μl of media using a mesoscale based ELISA assay. Full length Aβ40 and Aβ42 peptides are captured with the N-terminal specific biotinylated-WO2 monoclonal antibody and detected using either the ruthenylated Aβ40 C-terminal specific monoclonal antibody, G2-10 or the ruthenylated Aβ42 C-terminal specific monoclonal antibody G2-11 respectively. Raw electrochemiluminescnce values are measured using a Mesoscale Sector Imager plate reader and are plotted as a function of compound concentration. IC50 values are interpolated from the data using nonlinear regression analysis (Sigmoidal dose response fit with variable slope) of the data using GraphPad Prism software.

[4] = target: purified human Cathepsin-D (Homo sapiens (Human), UniProt P07339); experiment: Cathepsin-D Assay (time-resolved FRET); type: biochemical; conditions: Assay 4; Ki calculated from IC50 by Cheng-Prusoff;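 note: Europium-labelled peptide substrate with QSY7 quencher, cleavage read as 620 nm fluorescence after 30 min preincubation then 30 min reaction at 30 °C, pH 5.0, inhibition lowers signal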
Sequence of purified human Cathepsin-D (P07339 65-412): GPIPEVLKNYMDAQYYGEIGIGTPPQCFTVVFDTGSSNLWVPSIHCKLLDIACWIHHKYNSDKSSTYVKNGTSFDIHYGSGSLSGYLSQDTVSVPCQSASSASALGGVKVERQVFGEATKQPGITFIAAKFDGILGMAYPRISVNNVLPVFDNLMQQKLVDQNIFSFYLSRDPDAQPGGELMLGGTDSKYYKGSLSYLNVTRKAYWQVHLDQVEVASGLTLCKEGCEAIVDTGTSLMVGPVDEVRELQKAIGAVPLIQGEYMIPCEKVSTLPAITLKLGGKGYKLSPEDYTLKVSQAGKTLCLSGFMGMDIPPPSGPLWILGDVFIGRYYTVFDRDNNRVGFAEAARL
Experimental: Assay 4: Cathepsin-D Assay
This substrate contains an C-terminal QSY7 moiety that serves as a quencher of the N-terminal Europium fluorophore (620 nm Em). In the absence of enzyme activity, 620 nm fluorescence is low in the assay and increased linearly over 1 hour in the presence of uninhibited Cathepsin-D enzyme. Inhibition of Cathespin D cleavage of the Eu-Aspartyl Protease-QSY7 substrate by inhibitors is manifested as a suppression of 620 nm fluorescence.
Varying concentrations of inhibitors in a volume of 100 nl are preincubated with purified human Cathepsin-D (0.1 nM in 10 μl) for 30 minutes at 30° C. in reaction buffer containing 100 mM Na-Acetate pH 5.0, and 0.02% Brij-35. Reactions are initiated by addition of 10 μl of 100 nM Eu-Aspartyl Protease-QSY7 substrate (50 nM final) to give a final reaction volume of 20 μl in a 384 well Nunc HTRF plate. The reactions are incubated at 30° C. for 30 minutes. The 620 nm fluorescence is then read on a Envision Multilabel plate reader (Perkin-Elmer) using a 200 microsecond delay followed by a 400 microsecond acquisition time window. Inhibitor IC50 values are derived from non-linear regression analysis of concentration response curves.

Sequence of purified human autoBACE-2 (Q9Y5Z0 63-466): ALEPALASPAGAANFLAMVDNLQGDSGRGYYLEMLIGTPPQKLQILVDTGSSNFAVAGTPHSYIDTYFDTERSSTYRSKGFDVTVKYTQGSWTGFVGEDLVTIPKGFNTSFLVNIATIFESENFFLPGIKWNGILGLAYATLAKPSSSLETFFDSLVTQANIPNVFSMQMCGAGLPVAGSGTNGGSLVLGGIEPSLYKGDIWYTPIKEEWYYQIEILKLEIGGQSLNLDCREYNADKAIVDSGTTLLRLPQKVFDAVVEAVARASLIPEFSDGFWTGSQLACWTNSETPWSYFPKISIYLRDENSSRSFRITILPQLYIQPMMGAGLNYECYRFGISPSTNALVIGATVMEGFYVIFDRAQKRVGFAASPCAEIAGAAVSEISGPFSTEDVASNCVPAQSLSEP
Sequence of BACE-1 (P56817 46-501): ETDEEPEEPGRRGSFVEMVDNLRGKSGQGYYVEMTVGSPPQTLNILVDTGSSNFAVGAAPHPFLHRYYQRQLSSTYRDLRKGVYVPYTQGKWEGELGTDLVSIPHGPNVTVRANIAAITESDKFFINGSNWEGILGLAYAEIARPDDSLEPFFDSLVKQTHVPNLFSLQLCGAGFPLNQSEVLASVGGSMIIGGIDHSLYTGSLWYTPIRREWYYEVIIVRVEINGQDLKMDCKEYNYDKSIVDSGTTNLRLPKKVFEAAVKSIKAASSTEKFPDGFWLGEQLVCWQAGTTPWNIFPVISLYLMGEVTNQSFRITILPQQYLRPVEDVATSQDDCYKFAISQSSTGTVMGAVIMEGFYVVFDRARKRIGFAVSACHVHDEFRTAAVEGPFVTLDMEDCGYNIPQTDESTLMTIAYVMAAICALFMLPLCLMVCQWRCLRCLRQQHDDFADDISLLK
Sequence of soluble human BACE-1 catalytic domain (P56817 75-416): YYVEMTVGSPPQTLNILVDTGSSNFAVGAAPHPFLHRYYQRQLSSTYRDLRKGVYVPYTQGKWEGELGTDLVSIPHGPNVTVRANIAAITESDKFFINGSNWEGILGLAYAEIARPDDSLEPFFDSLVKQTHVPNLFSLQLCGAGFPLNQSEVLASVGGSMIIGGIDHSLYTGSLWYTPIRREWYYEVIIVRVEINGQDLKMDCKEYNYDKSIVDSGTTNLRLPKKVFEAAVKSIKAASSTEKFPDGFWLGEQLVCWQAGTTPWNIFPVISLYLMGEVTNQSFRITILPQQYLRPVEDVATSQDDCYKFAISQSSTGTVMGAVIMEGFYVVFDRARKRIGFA

Ki [1] | Ki [2] | IC50 [3] | Compound | Ki [4]
13.6 nM | 1.3 nM | 111 nM | COc1cnc2c(Nc3cc([C@]4(C)CS(=O)(=O)[C@@](C)(C5CC5)C(N)=N4)c(F)cn3)nccc2n1 [Example 9, N-{4-[(3R,6S)-6-cyclopropyl-5-imino-3,6-dimethyl-1,1-dioxidothiomorpholin-3-yl]-5-fluoropyridin-2-yl}-2-methoxypyrido[3,4-b]pyrazin-5-amine] | > 9400 nM
5.3 nM | 1.9 nM |  | COc1cnc2c(Nc3cc([C@]4(C)CS(=O)(=O)[C@@](C)(C5CC5)C(N)=N4)c(F)cn3)ccnc2c1 [Example 21, (2S,5R)-2-cyclopropyl-5-(5-fluoro-2-((7-methoxy-1,5-naphthyridin-4-yl)amino)pyridin-4-yl)-3-imino-2,5-dimethylthiomorpholine 1,1-dioxide] | 
271 nM | 129 nM |  | COc1cnc2c(Nc3cc([C@]4(C)CS(=O)(=O)[C@@](C)(C5CC5)C(N)=N4)c(F)cn3)ncnc2n1 [Example 23, (2S,5R)-2-cyclopropyl-5-(5-fluoro-2-((7-methoxypteridin-4-yl)amino)pyridin-4-yl)-3-imino-2,5-dimethylthiomorpholine 1,1-dioxide] | > 9400 nM
 |  | 250 nM | C[C@@]1(c2cc(Nc3nccc4cc(F)cnc34)ncc2F)CS(=O)(=O)[C@@](C)(C2CC2)C(N)=N1 [Example 26, (3R,6S)-5-amino-6-cyclopropyl-3-(5-fluoro-2-((3-fluoro-1,7-naphthyridin-8-yl)amino)pyridin-4-yl)-3,6-dimethyl-3,6-dihydro-2H-1,4-thiazine 1,1-dioxide] | 
 |  | 6.3 nM | CC#CCOc1cnc2c(Nc3cc([C@]4(C)CS(=O)(=O)[C@@](C)(C5CC5)C(N)=N4)c(F)cn3)nccc2n1 [Example 28, (3R,6S)-5-amino-3-(2-((2-(but-2-yn-1-yloxy)pyrido[3,4-b]pyrazin-5-yl)amino)-5-fluoropyridin-4-yl)-6-cyclopropyl-3,6-dimethyl-3,6-dihydro-2H-1,4-thiazine 1,1-dioxide] | 
 |  | 30 nM | CC#CCOc1cnc2c(Nc3cnc(F)c([C@]4(C)CS(=O)(=O)[C@@](C)(C5CC5)C(N)=N4)c3)nccc2n1 [Example 29, (3R,6S)-5-amino-3-(5-((2-(but-2-yn-1-yloxy)pyrido[3,4-b]pyrazin-5-yl)amino)-2-fluoropyridin-3-yl)-6-cyclopropyl-3,6-dimethyl-3,6-dihydro-2H-1,4-thiazine 1,1-dioxide] | 
 |  | 28 nM | CC#CCOc1cnc2c(Nc3cnc(F)c([C@]4(C)CS(=O)(=O)[C@@](C)(C5CC5)C(N)=N4)c3)nccc2c1 [Example 30, (3R,6S)-5-amino-3-(5-((3-(but-2-yn-1-yloxy)-1,7-naphthyridin-8-yl)amino)-2-fluoropyridin-3-yl)-6-cyclopropyl-3,6-dimethyl-3,6-dihydro-2H-1,4-thiazine 1,1-dioxide] | 
 |  | 180 nM | C[C@@]1(c2cc(Nc3ccnc4cccnc34)ncc2F)CS(=O)(=O)[C@@](C)(C2CC2)C(N)=N1 [Example 31, (3R,6S)-3-(2-((1,5-naphthyridin-4-yl)amino)-5-fluoropyridin-4-yl)-5-amino-6-cyclopropyl-3,6-dimethyl-3,6-dihydro-2H-1,4-thiazine 1,1-dioxide] | 
 |  | 32 nM | C[C@@]1(c2cc(Nc3ccnc4cc(F)cnc34)ncc2F)CS(=O)(=O)[C@@](C)(C2CC2)C(N)=N1 [Example 34, (3R,6S)-5-amino-6-cyclopropyl-3-(5-fluoro-2-((7-fluoro-1,5-naphthyridin-4-yl)amino)pyridin-4-yl)-3,6-dimethyl-3,6-dihydro-2H-1,4-thiazine 1,1-dioxide] | 
 |  | 23 nM | COc1cnc2c(Nc3ccc(F)c([C@]4(C)CS(=O)(=O)[C@@](C)(C5CC5)C(N)=N4)c3)ccnc2n1 [Example 37, (3R,6S)-5-amino-6-cyclopropyl-3-(2-fluoro-5-((3-methoxypyrido[2,3-b]pyrazin-8-yl)amino)phenyl)-3,6-dimethyl-3,6-dihydro-2H-1,4-thiazine 1,1-dioxide] | 
 |  | 130 nM | C[C@@]1(c2cc(Nc3ncnc4cc(C#N)cnc34)ncc2F)CS(=O)(=O)[C@@](C)(C2CC2)C(N)=N1 [Example 39, 4-((4-((3R,6S)-5-amino-6-cyclopropyl-3,6-dimethyl-1,1-dioxido-3,6-dihydro-2H-1,4-thiazin-3-yl)-5-fluoropyridin-2-yl)amino)pyrido[3,2-d]pyrimidine-7-carbonitrile] | 
3200 nM | 862 nM |  | CC1(C)C(=N)N[C@](C)(c2nc(Nc3cccc(Cl)c3F)ccc2F)CS1(=O)=O [WO′426 Ex. 30, reference compound] | 
5280 nM | 517 nM |  | COc1ccccc1Nc1ccc(F)c([C@]2(C)CS(=O)(=O)C(C)(C)C(=N)N2)n1 [WO′426 Ex. 30a, reference compound] | 

Compound | Ki [1] | Ki [2] | IC50 [3] | Ki [4]
C[C@@]1(c2nc(Nc3nccc4cc(C#N)cnc34)ccc2F)CS(=O)(=O)[C@@](CF)(C2CC2)C(N)=N1 [Example 2, 8-({6-[(3R,6S)-6-cyclopropyl-6-(fluoromethyl)-5-imino-3-methyl-1,1-dioxidothiomoipholin-3-yl]-5-fluoropyridin-2-yl}amino)-1,7-naphthyridine-3-carbonitrile] | 15 nM | 6.9 nM | 52 nM | 159 nM
C[C@@]1(c2cc(Nc3nccc4cc(Br)cnc34)ncc2F)CS(=O)(=O)[C@@](C)(C2CC2)C(N)=N1 [Example 3, 3-bromo-N-{4-[(3R,6S)-6-cyclopropyl-5-imino-3,6-dimethyl-1,1-dioxidothiomorpholin-3-yl]-5-fIuoropyridin-2-yl}-1,7-naphthyridin-8-amine] | 1.5 nM | 0.35 nM | 25 nM | 5530 nM
C[C@@]1(c2cc(Nc3nccc4cc(C#N)cnc34)ncc2F)CS(=O)(=O)[C@@](C)(C2CC2)C(N)=N1 [Example 4, 8-({4-[(3R,6S)-6-cyclopropyl-5-imino-3,6-dimethyl-1,1-dioxidothiomorpholin-3-yl]-5-fluoropyridin-2-yl}amino)-1,7-naphthyridine-3-carbonitrile] | 3.8 nM | 1.5 nM | 19 nM | 6650 nM
COc1cnc2c(Nc3ccc(F)c([C@]4(C)CS(=O)(=O)[C@@](CF)(C5CC5)C(N)=N4)c3)nccc2n1 [Example 8, N-{3-[(3R,6S)-6-cyclopropyl-6-(fluoromethyl)-5-imino-3-methyl-1,1-dioxidothiomoipholin-3-yl]-4-fluorophenyl}-2-methoxypyrido[3,4-b]pyrazin-5-amine] | 4.5 nM | 4.2 nM | 91 nM | 4010 nM
